Results on one compound are retold here after patent US20230218577A1, “USE OF HEAT SHOCK PROTEIN INHIBITORS FOR THE TREATMENT OF NEURODEVELOPMENTAL DISORDERS” (The Children's Medical Center Corporation, priority 2020, published 2023).

Structures are written as SMILES.

Type in all cases: cell-based, rat
Assay [1] deals with pS6, IGF-IRβ, Akt, PRAS40, Raptor in Tsc2-sh neurons. Put plainly: Western blot of PI3K/Akt/mTORC1 signaling components in Tsc2-sh neurons. From the text: Hsp90 is a molecular chaperone that protects its client proteins from degradation, and many of its substrates are oncogenic proteins (Neckers and Workman, Hsp90 molecular chaperone inhibitors: are we there yet?; Clin Cancer Res 18, 64-76 (2012)). Among these, insulin-growth factor-1 Receptor β (IGF-IRβ), Akt, and Raptor are components of the PI3K/mTOR pathway that have been identified as Hsp90 substrates in non-neuronal cells (Basso et al., Akt forms an intracellular complex with heat shock protein 90 (Hsp90) and Cdc37 and is destabilized by inhibitors of Hsp90 function; J Biol Chem 277, 39858-39866 (2002); Ohji et al., Suppression of the mTOR-raptor signaling pathway by the inhibitor of heat shock protein 90 geldanamycin; J Biochem 139, 129-135 (2006)). To test whether Hsp90 affects mTORC1 activity through regulation of IGF-IRβ, Akt, or Raptor in neurons, the expression of these potential client proteins were examined in Tsc2-knockdown neurons treated with vehicle or with a 7-point dose-response curve at a three-fold dilution of 17-AGG (assay endpoint DIV20).
To investigate whether Hsp90 could function as a chaperone of IGF-IRβ in neurons, wild-type neurons were treated with 17-AGG and then proteasomal degradation was inhibited using bortezomib (BTZ). As expected, Hsp90 inhibition led to reduced IGF-IRβ levels, and this reduction was prevented with BTZ. […] Without wishing to be bound by theory, it is likely that Hsp90 protects IGF-IRβ against proteasomal degradation. To test whether IGF-IRβ protein stability and signaling may represent a potential mechanism by which Hsp90 inhibition reduces mTORC1 activity, IGF-IRβ activation was assessed by autophosphorylation at Tyr1135/1136. Consistent with mTOR-dependent negative feedback on the RTK/Akt pathway (Zhang et al., S6K1 regulates GSK3 under conditions of mTOR-dependent feedback inhibition of Akt; Molecular cell 24, 185-197 (2006)), IGF-IRβ phosphorylation was reduced in the vehicle-treated Tsc2-sh neurons compared to controls (FIGS. 3G, J). […] (FIGS. 3G, J).
Hippocampi and cortexes from 18-day-old rat embryos (Charles River CD1) were isolated under the microscope and collected in Hank's Balanced Salt Solution containing 10 mM MgCl2, 1 mM kynurenic acid, 10 mM HEPES and penicillin/streptomycin. After 5 min dissociation at 37° C. in 30 U/ml of papain, neurons were mechanically triturated and plated in Neurobasal (NB) medium containing B27 supplement, 2 mM L-glutamine, penicillin/streptomycin and primocin (NB/B27). Biochemical analysis was performed on cortical cultures plated at 1×10^6 cells/well onto six-well plates. Immunofluorescent analysis was performed on hippocampal cultures plated at 20×10^3 cells/well onto 96-well plates. All plates were coated with 20 μg/ml poly-D-lysine (PDL).
Protein extracts were lysed in 1×SDS (22 mM Tris-HCl pH 6.8, 4% Glycerol, 0.8% SDS, 1.6% β-mercaptoethanol, bromphenol blue) sample buffer, heated to 95° C. for 5 min and stored frozen. Before being subjected to discontinuous gel electrophoresis, equal amounts of all protein lysates were verified by Coomassie gel staining. For immunoblotting, equal amounts of protein lysates were subjected to SDS-PAGE, transferred to Immobilon-P Millipore and incubated in LI-COR blocking solution at RT for 2 hrs. Primary and secondary antibodies were diluted in LI-COR blocking solution to the appropriate concentrations. LI-COR IRDye secondary antibodies were used. All images were acquired using the LI-COR Odyssey Classic imager and associated Image Studio Lite analysis software (version 5.2.5). Quantification of protein expression was performed by densitometry scans of immunoblots using LI-COR Odyssey imaging system.
Western blot quantifications were performed by protein normalization using GAPDH as loading control. Level of phosphorylated proteins was expressed as the ratio of phosphorylated/total level after GAPDH normalization. […]
(Immunoblotting shows a protein as a band on a membrane.)

Assay [2] deals with hspB1 mRNA in Tsc2-sh neurons. Put plainly: qPCR of hspB1 mRNA in Tsc2-sh neurons. The note with it: 50 nM between DIV9-13. The procedure: Tsc2-sh neurons were treated with 17-AGG and it was observed that increased hspB1 expression was reversed by the same dosing scheme that prevented cilia loss (50 nM between DIV9-13) (FIGS. 6A-D). To determine whether a similar dysregulation is present in the brains of TSC patients, the gene expression data from cortical tubers and unaffected brain tissue (Martin et al., The genomic landscape of tuberous sclerosis complex; Nat Commun 8, 15816 (2017)) was examined.
Total RNA was prepared with the RNA kit (Zimo Research) following the instructions of the manufacturer and quantified by a spectrophotometer. A total of 1 μg of poly(A) mRNA was used for reverse transcription using the Reverse Transcriptase (BIO-RAD). Real-time PCRs were performed using Power SYBG Green PCR Master Mix (Applied Biosystems). All quantitative PCR (qPCR) reactions were performed in triplicate and normalized against glyceraldehyde-3-phosphate dehydrogenase (GAPDH). Analysis was performed using QuantStudio™ 3 Real-Time PCR System (Thermo Fisher Scientific). The qPCR cycle was: 95° C. for 10 min followed by 40 cycles at 95° C. for 15 sec and 60° C. for 1 min.
In general terms: Real-time PCR tracks product formation cycle by cycle.

Assay [3] relates to IGF-IRβ, pS6 in wild-type cortical neurons. Put plainly: Proteasomal inhibition experiment, Western blot in wild-type cortical neurons. The note with it: 4 μM 17-AGG alone, 24 hrs at DIV20.
Description: Stocks of drugs were freshly diluted in NB media before performing each experiment. The same amount of vehicle was used as vehicle-only control. For dose response curves serial dilutions were freshly made in NB media by a manual multichannel pipette using compound dilution plates.
Setting [4] is: Tsc2-sh neurons, 7-point dose-response, assay endpoint DIV20.
The mark [5] stands for this setting: Tsc2-sh neurons, 17-AGG dose of 4 μM, assay endpoint DIV20.
The mark [6] stands for this setting: Tsc2-sh neurons, dose curve 24 hrs between DIV19-20.

For the compound `C=CCNC1=C2C[C@@H](C)C[C@H](OC)[C@H](O)[C@@H](C)/C=C(\C)[C@H](OC(N)=O)[C@@H](OC)C=C/C=C(\C)C(=O)NC(=CC1=O)C2=O` [17-AGG, 3 S,5S,6R,7S,8E,10R,11S,12E,14E)-21-(allylamino)-6-hydroxy-5,11-dimethoxy-3,7,9,15-tetramethyl-16,20,22-trioxo-17-azabicyclo[16.3.1]docosa-8,12,14,18,21-pentaen-10-yl] carbamate], in assay [1] (setting [4]), the Akt levels result is “no effect” and the Raptor levels result is recorded as “no effect”. Further, in assay [1] (setting [5]), the pS6 phosphorylation entry is listed as “significantly reduced” and the “total IGF-IRβ protein level” value was “significantly reduced”. Also, in assay [1] (setting [6]), the “phosphorylation of Akt” value is listed as “reduced” and the “phosphorylation of PRAS40” value was “reduced”. Further, the “phosphorylation of IGF-IRβ receptor (Tyr1135/1136)” value in assay [1] (Tsc2-sh neurons, dose curve, DIV19-20) is given as “further reduced”. The mTORC1 activation entry in assay [1] (Tsc2 knockdown cultures at DIV13, four days of 17-AGG 5-450 nM) is recorded as “without any effect”. In assay [2], the “increased hspB1 expression” value is “reversed”. In addition, the IGF-IRβ levels result in assay [3] is “reduced”.
